In the CheMixHub ionic liquid set:

Assay: xn = mol fraction of the nth substance listed

[Cl-].c1ccc(C[P+](c2ccccc2)(c2ccccc2)c2ccccc2)cc1 + OCCO
Details | electrical conductivity [S/m] | viscosity [mPa·s]
293.15 K, 101 kPa, x1 = 0.083 | 0.191 | 60.6
303.15 K, 101 kPa, x1 = 0.08333 | – | 68.3
313.15 K, 101 kPa, x1 = 0.083 | 0.298 | 32.2
313.15 K, 101 kPa, x1 = 0.08333 | – | 54.2
323.15 K, 100 kPa, x1 = 0.0833 | – | 38.5
323.15 K, 101 kPa, x1 = 0.08333 | – | 41.8
333.15 K, 101 kPa, x1 = 0.08333 | – | 33
338.15 K, 101.3 kPa, x2 = 0.75 | 0.02 | 86
343.15 K, 100 kPa, x1 = 0.0833 | – | 24.6
343.15 K, 101 kPa, x1 = 0.08333 | – | 24.2
353.15 K, 101 kPa, x1 = 0.08333 | – | 20.7

CCOCC[n+]1ccn(C)c1.O=S(=O)([N-]S(=O)(=O)C(F)(F)F)C(F)(F)F + O
101 kPa, x1 = 0.8424
Details | viscosity [mPa·s]
283 K | 68.1
298.1 K | 34

CCCC[N+](CCCC)(CCCC)CCCC.[Cl-] + N[C@@H](CO)C(=O)O
101 kPa
Details | electrical conductivity, 313.15 K [S/m] | electrical conductivity, 323.15 K [S/m] | electrical conductivity, 333.15 K [S/m] | electrical conductivity, 343.15 K [S/m] | electrical conductivity, 353.15 K [S/m] | viscosity, 313.15 K [mPa·s] | viscosity, 323.15 K [mPa·s] | viscosity, 333.15 K [mPa·s] | viscosity, 343.15 K [mPa·s] | viscosity, 353.15 K [mPa·s]
x2 = 0.09091 | 0.024 | 0.035 | 0.06 | 0.09 | 0.13 | 1110 | 490 | 260 | 141 | 86
x2 = 0.1 | 0.0298 | 0.0451 | 0.0631 | 0.093 | 0.136 | 1220 | 600 | 297 | 158 | 97
x2 = 0.1111 | 0.0102 | 0.0181 | 0.0425 | 0.0933 | 0.136 | 1000 | 480 | 237 | 135 | 83
